Source: patent publication US8178677B2, “Hydroxyalkyl substituted imidazoquinolines” (3M Innovative Properties Company, priority 2005, dated 2012)
Structures can show the parent of a compound that is named as a salt. Where two headings read alike, the source gives them in different places.

Assays:
[1] = tested on: interferon (α) (IFN-α) induction in human peripheral blood mononuclear cells (PBMC); test: Cytokine induction in human cells (PBMC): IFN-α secreted into culture media, ELISA; assay type: cell-based; settings: read-out: Minimum Effective Concentration (μM) IFN
Description: (§1) Cytokine Induction in Human Cells
(§2) An in vitro human blood cell system is used to assess cytokine induction. Activity is based on the measurement of interferon (α) and tumor necrosis factor (α) (IFN-α and TNF-α, respectively) secreted into culture media as described by Testerman et. al. in “Cytokine Induction by the Immunomodulators Imiquimod and S-27609”, Journal of Leukocyte Biology, 58, 365-372 (September, 1995).
(§3) Blood Cell Preparation for Culture
(§4) Whole blood from healthy human donors is collected by venipuncture into vacutainer tubes or syringes containing EDTA. Peripheral blood mononuclear cells (PBMC) are separated from whole blood by density gradient centrifugation using HISTOPAQUE-1077 (Sigma, St. Louis, Mo.) or Ficoll-Paque Plus (Amersham Biosciences Piscataway, N.J.). Blood is diluted 1:1 with Dulbecco's Phosphate Buffered Saline (DPBS) or Hank's Balanced Salts Solution (HBSS). Alternately, whole blood is placed in Accuspin (Sigma) or LeucoSep (Greiner Bio-One, Inc., Longwood, Fla.) centrifuge frit tubes containing density gradient medium. The PBMC layer is collected and washed twice with DPBS or HBSS and re-suspended at 4×10^6 cells/mL in RPMI complete. The PBMC suspension is added to 96 well flat bottom sterile tissue culture plates containing an equal volume of RPMI complete media containing test compound.
(§5) The compounds are solubilized in dimethyl sulfoxide (DMSO). The DMSO concentration should not exceed a final concentration of 1% for addition to the culture wells. The compounds are generally tested at concentrations ranging from 30-0.014 μM. Controls include cell samples with media only, cell samples with DMSO only (no compound), and cell samples with reference compound.
(§6) The solution of test compound is added at 60 μM to the first well containing RPMI complete and serial 3 fold dilutions are made in the wells. The PBMC suspension is then added to the wells in an equal volume, bringing the test compound concentrations to the desired range (usually 30-0.014 μM). The final concentration of PBMC suspension is 2×10^6 cells/mL. The plates are covered with sterile plastic lids, mixed gently and then incubated for 18 to 24 hours at 37° C. in a 5% carbon dioxide atmosphere.
(§7) Following incubation the plates are centrifuged for 10 minutes at 1000 rpm (approximately 200×g) at 4° C. The cell-free culture supernatant is removed and transferred to sterile polypropylene tubes. Samples are maintained at −30 to −70° C. until analysis. The samples are analyzed for IFN-α by ELISA and for TNF-α by IGEN/BioVeris Assay.
(§8) Interferon (α) and Tumor Necrosis Factor (α) Analysis
IFN-α concentration is determined with a human multi-subtype calorimetric sandwich ELISA (Catalog Number 41105) from PBL Biomedical Laboratories, Piscataway, N.J. Results are expressed in pg/mL.
(§9) In total, the data output of the assay consists of concentration values of TNF-α and IFN-α (y-axis) as a function of compound concentration (x-axis).
Analysis of the data has two steps. First, the greater of the mean DMSO (DMSO control wells) or the experimental background (usually 20 pg/mL for IFN-α and 40 pg/mL for TNF-α) is subtracted from each reading. If any negative values result from background subtraction, the reading is reported as “*”, and is noted as not reliably detectable. In subsequent calculations and statistics, “*”, is treated as a zero. Second, all background subtracted values are multiplied by a single adjustment ratio to decrease experiment to experiment variability. The adjustment ratio is the area of the reference compound in the new experiment divided by the expected area of the reference compound based on the past 61 experiments (unadjusted readings). […] The reference compound used is 2-[4-amino-2-ethoxymethyl-6,7,8,9-tetrahydro-α,α-dimethyl-1H-imidazo[4,5-c]quinolin-1-yl]ethanol hydrate (U.S. Pat. No. 5,352,784; Example 91) and the expected area is the sum of the median dose values from the past 61 experiments. […]

[2] = tested on: tumor necrosis factor (α) (TNF-α) induction in human peripheral blood mononuclear cells (PBMC); test: Cytokine induction in human cells (PBMC): TNF-α secreted into culture media, ORIGEN M-Series immunoassay; assay type: cell-based; settings: for minimal effective concentration: Homo sapiens, PBMC, read-out: Minimum Effective Concentration (μM) TNF; for Maximal Response (pg/mL) TNF: background-subtracted
Description: as §1, §2, §3, §4, §5, §6, §7, §8
The TNF-α concentration is determined by ORIGEN M-Series Immunoassay and read on an IGEN M-8 analyzer from BioVeris Corporation, formerly known as IGEN International, Gaithersburg, Md. The immunoassay uses a human TNF-α capture and detection antibody pair (Catalog Numbers AHC3419 and AHC3712) from Biosource International, Camarillo, Calif. Results are expressed in pg/mL.
as §9
Analysis of the data has two steps. First, the greater of the mean DMSO (DMSO control wells) or the experimental background (usually 20 pg/mL for IFN-α and 40 pg/mL for TNF-α) is subtracted from each reading. If any negative values result from background subtraction, the reading is reported as “*”, and is noted as not reliably detectable. In subsequent calculations and statistics, “*”, is treated as a zero. Second, all background subtracted values are multiplied by a single adjustment ratio to decrease experiment to experiment variability. The adjustment ratio is the area of the reference compound in the new experiment divided by the expected area of the reference compound based on the past 61 experiments (unadjusted readings). […]

[3] = 18 to 24 hours incubation, tested 30-0.014 μM, lowest concentration inducing response over 20 pg/mL IFN-α, median of # experiments
[4] = lowest tested concentration inducing IFN-α over 20 pg/mL, median where more than one experiment
[5] = 18 to 24 hours incubation, tested 30-0.014 μM, lowest concentration inducing response over 40 pg/mL TNF-α, median of # experiments
[6] = lowest tested concentration inducing TNF-α over 40 pg/mL, median where more than one experiment
[7] = maximal response in dose response curve, reference-adjusted, median where more than one experiment, * = below background of 40 pg/mL

Row | SMILES | melting point | minimal effective concentration [1, 3] | minimal effective concentration [1, 4] | minimal effective concentration [2, 5] | minimal effective concentration [2, 6] | Maximal Response (pg/mL) TNF [2, 7] | Maximal Response (pg/mL) TNF ([2]; 18 to 24 hours incubation, reference-adjusted maximal response of dose response curve, median of # experiments)
1 | Cc1nc2c(N)nc3ccccc3c2n1CC(C)(C)NS(C)(=O)=O [Analog 1, N-[2-(4-Amino-2-methyl-1H-imidazo[4,5-c]quinolin-1-yl)-1,1-dimethylethyl]methanesulfonamide, reference compound] |  | 0.37 µM | 0.37 µM | 3.33 µM | 3.33 µM |  | 
2 | CCc1nc2c(N)nc3ccccc3c2n1CC(C)(C)NS(C)(=O)=O [Analog 2, N-[2-(4-Amino-2-ethyl-1H-imidazo[4,5-c]quinolin-1-yl)-1,1-dimethylethyl]methanesulfonamide, reference compound] |  | 0.12 µM | 0.12 µM | 1.11 µM | 1.11 µM |  | 
3 | CCCc1nc2c(N)nc3ccccc3c2n1CC(C)(C)NS(C)(=O)=O [Analog 3, N-[2-(4-Amino-2-propyl-1H-imidazo[4,5-c]quinolin-1-yl)-1,1-dimethylethyl]methanesulfonamide, reference compound] |  | 0.12 µM | 0.12 µM | 0.37 µM | 0.37 µM |  | 
4 | CCOCc1nc2c(N)nc3ccccc3c2n1CC(C)(C)NS(C)(=O)=O [Analog 4, N-[2-(4-Amino-2-ethoxymethyl-1H-imidazo[4,5-c]quinolin-1-yl)-1,1-dimethylethyl]methanesulfonamide, reference compound] |  | 0.04 µM | 0.04 µM | 0.37 µM | 0.37 µM |  | 
5 | COCCc1nc2c(N)nc3ccccc3c2n1CC(C)(C)NS(C)(=O)=O [Analog 5, N-{2-[4-Amino-2-(2-methoxyethyl)-1H-imidazo[4,5-c]quinolin-1-yl]-1,1-dimethylethyl}methanesulfonamide, reference compound] |  | 0.014 µM | 0.014 µM | 0.12 µM | 0.12 µM |  | 
6 | Cc1ccc(S(=O)(=O)NCCCn2c(CCO)nc3c(N)nc4ccccc4c32)cc1 [Example 1, N-{3-[4-Amino-2-(2-hydroxyethyl)-1H-imidazo[4,5-c]quinolin-1-yl]propyl}-4-methylbenzenesulfonamide] | 231 to 232 °C |  | 0.37 µM |  | 10 µM |  | 
7 | Nc1nc2ccccc2c2c1nc(CCO)n2CCCNC(=O)c1cc2ccccc2cn1 [Example 2, N-{3-[4-Amino-2-(2-hydroxyethyl)-1H-imidazo[4,5-c]quinolin-1-yl]propyl}isoquinoline-3-carboxamide] | 245 to 246 °C |  | 3.33 µM |  | 3.33 µM |  | 
8 | CS(=O)(=O)NCCCCn1c(CCO)nc2c(N)nc3ccccc3c21 [Example 3, N-{4-[4-Amino-2-(2-hydroxyethyl)-1H-imidazo[4,5-c]quinolin-1-yl]butyl}methanesulfonamide] | 206 to 208 °C |  | 0.37 µM |  | > 30 µM | * (TNF below experimental background of 40 pg/mL.) | 

Second part, led by results:

Row | melting point | SMILES | minimal effective concentration [1, 3] | minimal effective concentration [1, 4] | minimal effective concentration [2, 5] | minimal effective concentration [2, 6] | Maximal Response (pg/mL) TNF [2, 7] | Maximal Response (pg/mL) TNF ([2]; 18 to 24 hours incubation, reference-adjusted maximal response of dose response curve, median of # experiments)
9 | 222 to 224 °C | CC(C)C(=O)NCCCCn1c(CO)nc2c(N)nc3ccccc3c21 (as salt: salt) [Example 146, N-[4-(4-amino-2-hydroxymethyl-1H-imidazo[4,5-c]quinolin-1-yl)butyl]isobutyramide] |  |  |  |  |  | 
10 | 248 to 250 °C | CC(C)(N)Cn1c(CO)nc2c(N)nc3ccccc3c21 [Example 4, 1-(2-Amino-2-methylpropyl)-2-hydroxymethyl-1H-imidazo[4,5-c]quinolin-4-amine] |  | 0.37 µM |  | 3.33 µM |  | 
11 | 248 to 250 °C | CC(C)(Cn1c(CO)nc2c(N)nc3ccccc3c21)NC(=O)C1CCCCC1 [Example 5, N-[2-(4-Amino-2-hydroxymethyl-1H-imidazo[4,5-c]quinolin-1-yl)-1,1-dimethylethyl]cyclohexanecarboxamide] |  | 0.37 µM |  | 10 µM |  | 
12 | 209 to 212 °C | CC(C)(Cn1c(CCO)nc2c(N)nc3ccccc3c21)NS(C)(=O)=O [Example 6, N-{2-[4-Amino-2-(2-hydroxyethyl)-1H-imidazo[4,5-c]quinolin-1-yl]-1,1-dimethylethyl}methanesulfonamide] | 1.11 µM | 1.11 µM | > 30 µM | 30 µM | * (TNF below experimental background of 40 pg/mL.) | * (TNF below experimental background of 40 pg/mL.)
13 | 183 to 186 °C | Nc1nc2ccccc2c2c1nc(CO)n2CCCCNC(=O)C1CCCC1 [Example 145, N-{4-[4-amino-2-(hydroxymethyl)-1H-imidazo[4,5-c]quinolin-1-yl]butyl}cyclopentanecarboxamide] |  |  |  |  |  | 
14 | 99 to 100 °C | CC(C)[C@H](NC(=O)OCc1ccccc1)C(=O)OCc1nc2c(N)nc3ccccc3c2n1CCCCNS(C)(=O)=O [Example 148, (4-Amino-1-{4-[(methylsulfonyl)amino]butyl}-1H-imidazo[4,5-c]quinolin-2-yl)methyl N-[(benzyloxy)carbonyl]-L-valinate] |  |  |  |  |  | 
15 | 161 to 163 °C | CC(C)[C@H](N)C(=O)OCc1nc2c(N)nc3ccccc3c2n1CCCCNS(C)(=O)=O [Example 149, (4-Amino-1-{4-[(methylsulfonyl)amino]butyl}-1H-imidazo[4,5-c]quinolin-2-yl)methyl L-valinate] |  |  |  |  |  | 
16 | 239 to 241 °C | Nc1nc2ccccc2c2c1nc(CO)n2CC1CCOCC1 [Example 150, [4-Amino-1-(tetrahydro-2H-pyran-4-ylmethyl)-1H-imidazo[4,5-c]quinolin-2-yl]methanol] |  |  |  |  |  | 
